Experimental data taken from US20110118379A1, “INTERVERTEBRAL DISC AND INTRAOCULAR LENS” (priority 2008, published 2011).

What was measured:
[1] = system: bovine nucleus pulposus cells; test: MTS cytotoxicity assay, bovine nucleus pulposus cells; assay type: cell-based; settings: bovine disc cells, 24 hours incubation
Method: (§1) Cytotoxicity testing was carried out on precursor monomers and proteoglycan analogues via the MTS assay using a commercial Kit (MTS assay Cell titre 96® AQueous One Solution Cell Proliferation Assay). Briefly, 5×10^3 cells per well were allowed to adhere to a 96 well plate for 24 hours. The substance under test was added and incubated with the cells for 24 hours before assessment of cell activity with MTS solution. Two cell types were used: (i) L929 mouse fibroblasts (European Collection of Cell Culture: ECACC No 85011425) which are typically used in cytotoxicity tests and (ii) bovine nucleus pulposus cells, prepared by enzymatic digestion of nucleus pulposus from bovine coccygeal discs.
(§2) The individual possible components of proteoglycan analogues were tested, including: NaAMPS, KSPA, acryloyl morpholine (ACMO), glycerol, ascorbic acid, Oxone (potassium oxypersulphate), PEG diacrylate and multifunctional macromer cross-linkers. The proteoglycan analogues are exemplified by those in Tables 1 and 2.

L929 mouse fibroblasts = test: MTS cytotoxicity assay, L929 cells; assay type: cell-based; settings: 24 hours incubation
Method: as §1, §2

Row | Compound | toxicity to cells (MTS assay) [1] | toxicity to cells (MTS assay) (L929 mouse fibroblasts)
1 | potassium oxypersulphate [Oxone] | not to be toxic | not to be toxic
2 | O=C1O[C@H]([C@@H](O)CO)C(O)=C1O [ascorbic acid] | not to be toxic | not to be toxic
